Data from ChEMBL document CHEMBL1201862, “PubChem BioAssay data set” (2004).
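Assay format: 96-well plates, 48-hour exposure. At the GI50, growth is halved.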 Activity calls are given as the source filed them. Rule as the data show it: active = GI50 up to about 1.1 µM and inactive = higher.

Legend:
Assay in all cases: NCI anticancer screen, dose series, 48 h
BT-549 = test system: BT-549
OVCAR-8 = test system: OVCAR-8
MDA-MB-231 = test system: MDA-MB-231
786-0 = test system: 786-0
NCI-H226 = test system: NCI-H226
NCI-H460 = test system: NCI-H460
SW-620 = test system: SW-620
MOLT-4 = test system: MOLT-4
SK-MEL-28 = test system: SK-MEL-28
SK-MEL-2 = test system: SK-MEL-2
RPMI-8226 = test system: RPMI-8226
A498 = test system: A498
DU-145 = test system: DU-145
A549 = test system: A549
T47D = test system: T47D
PC-3 = test system: PC-3
ACHN = test system: ACHN
U-251 = test system: U-251
Hs-578T = test system: Hs-578T
HOP-92 = test system: HOP-92

Row | SMILES | GI50 (BT-549) | GI50 (OVCAR-8) | GI50 (MDA-MB-231) | GI50 (786-0) | GI50 (NCI-H226) | GI50 (NCI-H460) | GI50 (SW-620) | GI50 (MOLT-4) | GI50 (SK-MEL-28) | GI50 (SK-MEL-2) | GI50 (RPMI-8226) | GI50 (A498) | GI50 (DU-145) | GI50 (A549) | GI50 (T47D) | GI50 (PC-3) | GI50 (ACHN) | GI50 (U-251) | GI50 (Hs-578T) | GI50 (HOP-92)
1 | N#CI1OC(=O)c2ccccc21 | 91.2 µM (inactive) | > 100 µM (inactive) | > 100 µM (inactive) | > 100 µM (inactive) | > 100 µM (inactive) | > 100 µM (inactive) | > 100 µM (inactive) | 92.9 µM (inactive) | 92 µM (inactive) | > 100 µM (inactive) | 38.5 µM (inactive) | > 100 µM (inactive) | > 100 µM (inactive) | > 100 µM (inactive) | > 100 µM (inactive) | > 100 µM (inactive) | > 100 µM (inactive) | > 100 µM (inactive) | – | –
2 | COC(=O)CN1CCN(c2cccc3c2CCCC3)CC1 | – | > 100 µM (inactive) | 71.9 µM (inactive) | 36.2 µM (inactive) | 23.4 µM (inactive) | 46.8 µM (inactive) | > 100 µM (inactive) | 44.5 µM (inactive) | – | > 100 µM (inactive) | 25.1 µM (inactive) | > 100 µM (inactive) | – | 69.5 µM (inactive) | 98.2 µM (inactive) | 64.6 µM (inactive) | 72.9 µM (inactive) | > 100 µM (inactive) | > 100 µM (inactive) | 0.0248 µM (active)
3 | CCOc1ccccc1NC(=O)CCC(=O)OC | – | > 100 µM (inactive) | – | > 100 µM (inactive) | > 100 µM (inactive) | > 100 µM (inactive) | > 42.1 µM (inactive) | > 100 µM (inactive) | > 100 µM (inactive) | > 100 µM (inactive) | > 48.3 µM (inactive) | > 100 µM (inactive) | – | > 100 µM (inactive) | – | – | > 100 µM (inactive) | > 49.9 µM (inactive) | – | > 100 µM (inactive)
4 | C=C1CN(Cc2ccccc2)[C@@H]2CCCCC[C@H](C#N)[C@H]12 | > 100 µM (inactive) | > 68.4 µM (inactive) | > 100 µM (inactive) | > 100 µM (inactive) | > 69.3 µM (inactive) | > 78.2 µM (inactive) | > 94.8 µM (inactive) | 24.3 µM (inactive) | > 100 µM (inactive) | > 100 µM (inactive) | 22.5 µM (inactive) | > 100 µM (inactive) | > 100 µM (inactive) | 78 µM (inactive) | > 100 µM (inactive) | > 74.1 µM (inactive) | > 100 µM (inactive) | > 94 µM (inactive) | – | 36.3 µM (inactive)
5 | O=C(N/N=C/c1ccc(Cl)cc1)c1cc(I)cc(I)c1O | > 100 µM (inactive) | > 100 µM (inactive) | > 100 µM (inactive) | > 100 µM (inactive) | > 100 µM (inactive) | – | > 100 µM (inactive) | > 100 µM (inactive) | > 100 µM (inactive) | > 100 µM (inactive) | > 100 µM (inactive) | 33.3 µM (inactive) | > 100 µM (inactive) | > 100 µM (inactive) | > 100 µM (inactive) | > 100 µM (inactive) | > 100 µM (inactive) | > 100 µM (inactive) | – | 92.3 µM (inactive)
6 | O=S(=O)(O)c1ccc(O)c2ncc(Cl)cc12 | > 100 µM (inactive) | > 100 µM (inactive) | > 100 µM (inactive) | > 100 µM (inactive) | > 100 µM (inactive) | > 100 µM (inactive) | > 100 µM (inactive) | > 100 µM (inactive) | > 100 µM (inactive) | > 100 µM (inactive) | 51.1 µM (inactive) | > 100 µM (inactive) | > 100 µM (inactive) | > 100 µM (inactive) | > 100 µM (inactive) | > 100 µM (inactive) | > 100 µM (inactive) | > 100 µM (inactive) | – | > 100 µM (inactive)
7 | O=c1nc2n(cc1/C=C\Br)C1CC(O)C(CO2)O1 (stereo unspecified) | > 100 µM (inactive) | > 100 µM (inactive) | > 100 µM (inactive) | > 100 µM (inactive) | > 100 µM (inactive) | > 100 µM (inactive) | > 100 µM (inactive) | > 100 µM (inactive) | > 100 µM (inactive) | – | > 100 µM (inactive) | 49.9 µM (inactive) | > 100 µM (inactive) | > 100 µM (inactive) | > 100 µM (inactive) | – | > 100 µM (inactive) | > 100 µM (inactive) | – | –
8 | NC(=O)N/N=C1/CCCC/C1=C\c1ccccc1 | – | > 100 µM (inactive) | – | > 100 µM (inactive) | > 100 µM (inactive) | > 100 µM (inactive) | > 100 µM (inactive) | 36.6 µM (inactive) | > 100 µM (inactive) | > 100 µM (inactive) | > 100 µM (inactive) | > 100 µM (inactive) | – | > 100 µM (inactive) | – | – | > 100 µM (inactive) | > 100 µM (inactive) | – | > 100 µM (inactive)
9 | O=C(Nc1ccc(Cl)c(Cl)c1)C(=O)C(C(=O)c1ccccc1-c1ccccc1)C1OC(=O)c2ccccc21 (stereo unspecified) | – | 17.4 µM (inactive) | – | 11.2 µM (inactive) | 3.04 µM (inactive) | 19.9 µM (inactive) | 19 µM (inactive) | 14 µM (inactive) | > 100 µM (inactive) | 11.4 µM (inactive) | 8.24 µM (inactive) | 22.9 µM (inactive) | – | 21.3 µM (inactive) | – | – | 31.3 µM (inactive) | 9.1 µM (inactive) | – | 12.9 µM (inactive)
10 | CC(C)CCn1nc(N)c2nc3ccccc3nc21 | > 100 µM (inactive) | > 100 µM (inactive) | – | > 100 µM (inactive) | 61.8 µM (inactive) | 57 µM (inactive) | 67.6 µM (inactive) | 26.3 µM (inactive) | > 100 µM (inactive) | > 100 µM (inactive) | > 100 µM (inactive) | > 100 µM (inactive) | – | > 100 µM (inactive) | – | > 100 µM (inactive) | 41.3 µM (inactive) | > 100 µM (inactive) | > 100 µM (inactive) | > 100 µM (inactive)
11 | COc1ccc(C2CCC(Cl)(OC)CC2C=O)cc1 (stereo unspecified) | – | 85.1 µM (inactive) | – | 45 µM (inactive) | > 100 µM (inactive) | > 100 µM (inactive) | 54.3 µM (inactive) | 47.5 µM (inactive) | 21 µM (inactive) | 21.9 µM (inactive) | 45.7 µM (inactive) | > 100 µM (inactive) | – | 61.5 µM (inactive) | – | – | 95.9 µM (inactive) | 43.9 µM (inactive) | – | 29.9 µM (inactive)
12 | O=[N+]([O-])c1ccc2c(c1)Sc1ccccc1N2CCCCCl | > 100 µM (inactive) | > 100 µM (inactive) | > 100 µM (inactive) | > 100 µM (inactive) | > 100 µM (inactive) | > 100 µM (inactive) | > 100 µM (inactive) | 87.9 µM (inactive) | > 100 µM (inactive) | – | > 100 µM (inactive) | > 100 µM (inactive) | > 100 µM (inactive) | > 100 µM (inactive) | – | > 100 µM (inactive) | > 100 µM (inactive) | > 100 µM (inactive) | > 100 µM (inactive) | 24.9 µM (inactive)
13 | CCOC(=O)/C(C#N)=C/Nc1c(C)n(C)n(-c2ccccc2)c1=O | > 100 µM (inactive) | > 100 µM (inactive) | > 100 µM (inactive) | > 100 µM (inactive) | 43.4 µM (inactive) | – | > 100 µM (inactive) | > 100 µM (inactive) | – | > 100 µM (inactive) | > 100 µM (inactive) | > 100 µM (inactive) | > 100 µM (inactive) | > 100 µM (inactive) | – | > 100 µM (inactive) | > 100 µM (inactive) | > 100 µM (inactive) | – | > 100 µM (inactive)
14 | COc1ccc(OC)c2c1C1CCC(=O)N1CN2C(C)=O (stereo unspecified) | – | > 100 µM (inactive) | > 100 µM (inactive) | > 100 µM (inactive) | > 100 µM (inactive) | > 100 µM (inactive) | > 100 µM (inactive) | > 100 µM (inactive) | > 100 µM (inactive) | > 100 µM (inactive) | > 100 µM (inactive) | > 100 µM (inactive) | > 100 µM (inactive) | > 100 µM (inactive) | > 100 µM (inactive) | > 100 µM (inactive) | > 100 µM (inactive) | > 100 µM (inactive) | > 100 µM (inactive) | > 100 µM (inactive)
15 | [O-][S+](Nc1ccccc1)c1ccccc1Oc1ccccc1 (stereo unspecified) | – | 26.9 µM (inactive) | 36.2 µM (inactive) | 24.7 µM (inactive) | 30.4 µM (inactive) | 35.3 µM (inactive) | > 100 µM (inactive) | 19.1 µM (inactive) | 33.5 µM (inactive) | – | 43.3 µM (inactive) | – | > 100 µM (inactive) | 27 µM (inactive) | – | 39.2 µM (inactive) | 46 µM (inactive) | 22 µM (inactive) | 2.84 µM (inactive) | –
16 | Nc1ccc(-c2nc3ccc(F)cc3s2)cc1I | > 100 µM (inactive) | > 79.4 µM (inactive) | > 54.2 µM (inactive) | 40.4 µM (inactive) | – | > 100 µM (inactive) | > 100 µM (inactive) | 12.4 µM (inactive) | > 100 µM (inactive) | > 100 µM (inactive) | > 100 µM (inactive) | > 100 µM (inactive) | > 100 µM (inactive) | > 100 µM (inactive) | – | > 100 µM (inactive) | > 100 µM (inactive) | > 90.8 µM (inactive) | 22.2 µM (inactive) | 24.8 µM (inactive)
